Where a name gives a salt, the structure may show the parent alone.

In the first data set the test system is Pseudomonas aeruginosa PAO1 MB9798 (efflux+, IMP-1). Particulars: fold difference between efflux + (MB9798) and efflux − (MB9799) strains; imipenem at 2 μg/mL. Put shortly: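 Isogenic PAO1 pair (efflux+ MB9798, efflux− MB9799, both IMP-1) tested by microbroth MIC with fixed imipenem and/or ceftazidime, usually at CLSI breakpoint, plus fixed class A/C inhibitor against AmpC. MBL inhibitor titrated; concentration restoring susceptibility recorded and fold difference between strains taken as efflux extent.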
Take `C[N+](C)(C)CCNS(=O)(=O)c1ccc(-c2cccc3sc(N)nc23)c(-c2nnn[nH]2)c1S(N)(=O)=O` [Example 391, 2-({[4-(2-amino-1,3-benzothiazol-4-yl)-2-sulfamoyl-3-(1H-tetrazol-5-yl)phenyl]sulfonyl}amino)-N,N,N-trimethylethanaminium trifluoroacetate]: the Efflux ratio was 1.00.

The same data set, now with this note: ratio MITC95 PA 9798/MITC95 PA 9799; imipenem at 2 μg/mL.
In the case of `Nc1nc2c(-c3ccc(S(=O)(=O)N[C@H]4CCNC4)c(S(N)(=O)=O)c3-c3nnn[nH]3)cccc2s1` [Example 60, 4-(2-amino-1,3-benzothiazol-4-yl)-N1-[(3S)-pyrrolidin-3-yl]-3-(1H-tetrazol-5-yl)benzene-1,2-disulfonamide], the Efflux ratio came out at 0.50. On to `Nc1nc2c(-c3ccc(S(=O)(=O)NC4CCNCC4)c(S(N)(=O)=O)c3-c3nnn[nH]3)cccc2s1` [Example 32, 4-(2-amino-1,3-benzothiazol-4-yl)-N1-piperidin-4-yl-3-(1H-tetrazol-5-yl)benzene-1,2-disulfonamide], for which the Efflux ratio was 0.50. Consider `Nc1nc2c(-c3ccc(S(=O)(=O)NC4CC5CNC4C5)c(S(N)(=O)=O)c3-c3nnn[nH]3)cccc2s1` (stereo not shown) [Example 89, 4-(2-aminobenzo[d]thiazol-4-yl)-N^1-(2-azabicyclo[2.2.1]heptan-6-yl)-3-(1H-tetrazol-5-yl)benzene-1,2-disulfonamide], for which the Efflux ratio is reported as 1.00.

`Nc1nc2c(-c3ccc(S(=O)(=O)NCCO)c(S(N)(=O)=O)c3-c3nn[nH]n3)cccc2s1` [Example 144, 4-(2-aminobenzo[d]thiazol-4-yl)-N1-(2-hydroxyethyl)-3-(2H-tetrazol-5-yl)benzene-1,2-disulfonamide]: the Efflux ratio is given as 1.00. The same measure, in the same setting: the figure for `N#Cc1cccc(-c2ccc(S(=O)(=O)N[C@@H]3CCNC3)c(S(N)(=O)=O)c2-c2nnn[nH]2)c1N` [Example 132, (R)-2′-amino-3′-cyano-N4-(pyrrolidin-3-yl)-2-(1H-tetrazol-5-yl)-[1,1′-biphenyl]-3,4-disulfonamide] is 4.00; for `Nc1nc2c(-c3ccc(S(=O)(=O)N[C@@H]4CCNC4)c(S(N)(=O)=O)c3-c3nn[nH]n3)cc(I)cc2[nH]1` [Example 234, (R)-4-(2-amino-6-iodo-1H-benzo[d]imidazol-4-yl)-N^1-(pyrrolidin-3-yl)-3-(2H-tetrazol-5-yl)benzene-1,2-disulfonamide] it is 1.00; for `Nc1nc2c(-c3ccc(S(=O)(=O)N[C@H]4CCNC4)c(S(N)(=O)=O)c3-c3nn[nH]n3)cccc2[nH]1` [Example 162, 4-(2-amino-1H-benzo[d]imidazol-4-yl)-N^1-((S)-pyrrolidin-3-yl)-3-(2H-tetrazol-5-yl)benzene-1,2-disulfonamide] it is 0.87. For `Nc1nc2c(-c3ccc(S(=O)(=O)N[C@H]4CN[C@@H](CO)C4)c(S(N)(=O)=O)c3-c3nnn[nH]3)cccc2s1` [Example 81, 4-(2-amino-1,3-benzothiazol-4-yl)-N1-[(3R,5R)-5-(hydroxymethyl)pyrrolidin-3-yl]-3-(1H-tetrazol-5-yl)benzene-1,2-disulfonamide], the Efflux ratio worked out at 0.50. Same read-out and setting: the same measure for `NS(=O)(=O)c1c(S(=O)(=O)N[C@@H]2CCNC2)ccc(-c2cnc3ccccn23)c1-c1nnn[nH]1` [Example 140, (R)-4-(imidazo[1,2-a]pyridin-3-yl)-N1-(pyrrolidin-3-yl)-3-(1H-tetrazol-5-yl)benzene-1,2-disulfonamide]: 2.00; for `NC[C@H](O)CNS(=O)(=O)c1ccc(-c2ccncc2N)c(-c2nn[nH]n2)c1S(N)(=O)=O` [Example 222, (S)—N1-(3-amino-2-hydroxypropyl)-4-(3-aminopyridin-4-yl)-3-(2H-tetrazol-5-yl)benzene-1,2-disulfonamide]: 1.00. For the molecule `CN(C)S(=O)(=O)c1ccc(-c2cccc3sc(N)nc23)c(-c2nn[nH]n2)c1S(N)(=O)=O` [Example 151, 4-(2-aminobenzo[d]thiazol-4-yl)-N1,N1-dimethyl-3-(2H-tetrazol-5-yl)benzene-1,2-disulfonamide], the Efflux ratio is 16.00. With `NCC(F)(F)CNS(=O)(=O)c1ccc(-c2cccc3sc(N)nc23)c(-c2nnn[nH]2)c1S(N)(=O)=O` [Example 47, 4-(2-amino-1,3-benzothiazol-4-yl)-N1-(3-amino-2,2-difluoropropyl)-3-(1H-tetrazol-5-yl)benzene-1,2-disulfonamide], the Efflux ratio is 1.00. For `CC(C)(CN)NS(=O)(=O)c1ccc(-c2cccnc2N)c(-c2nn[nH]n2)c1S(N)(=O)=O` [Example 211, N1-(1-amino-2-methylpropan-2-yl)-4-(2-aminopyridin-3-yl)-3-(2H-tetrazol-5-yl)benzene-1,2-disulfonamide], the Efflux ratio came out at 4.00. Take `NC1CCC(c2ccc(S(N)(=O)=O)c(S(N)(=O)=O)c2-c2nnn[nH]2)CC1` (stereo not shown) [Example 165, 4-(4-aminocyclohexyl)-3-(1H-tetrazol-5-yl)benzene-1,2-disulfonamide]: the Efflux ratio is given as 4.00. For the molecule `NC[C@@H](N)CNS(=O)(=O)c1ccc(-c2cccc(-c3n[nH]c(N)n3)c2)c(-c2nn[nH]n2)c1S(N)(=O)=O` [Example 230, (R)-3′-(5-amino-1H-1,2,4-triazol-3-yl)-N4-(2,3-diaminopropyl)-2-(2H-tetrazol-5-yl)-[1,1′-biphenyl]-3,4-disulfonamide], the Efflux ratio is reported as 1.00.

With `Nc1nc2c(-c3ccc(S(=O)(=O)NCCC4CNC4)c(S(N)(=O)=O)c3-c3nnn[nH]3)cccc2s1` [Example 30, 4-(2-amino-1,3-benzothiazol-4-yl)-N1-(2-azetidin-3-ylethyl)-3-(1H-tetrazol-5-yl)benzene-1,2-disulfonamide], the Efflux ratio is 1.00. On to `Nc1nc2c(-c3ccc(S(=O)(=O)N[C@H]4CNC[C@H]4O)c(S(N)(=O)=O)c3-c3nnn[nH]3)cccc2[nH]1` [Example 168, 4-(2-amino-1H-benzo[d]imidazol-4-yl)-N^1-((3S,4R)-4-hydroxypyrrolidin-3-yl)-3-(1H-tetrazol-5-yl)benzene-1,2-disulfonamide], for which the Efflux ratio is listed as 0.70. On to `NC[C@@H](CO)NS(=O)(=O)c1ccc(-c2cccc3sc(N)nc23)c(-c2nnn[nH]2)c1S(N)(=O)=O` [Example 201, (S)—N^1-(1-amino-3-hydroxypropan-2-yl)-4-(2-aminobenzo[d]thiazol-4-yl)-3-(1H-tetrazol-5-yl)benzene-1,2-disulfonamide], for which the Efflux ratio stood at 0.50.

Turning to `CNC(=O)CNS(=O)(=O)c1ccc(-c2cccc3sc(N)nc23)c(-c2nnn[nH]2)c1S(N)(=O)=O` [Example 23, N^2-{[4-(2-amino-1,3-benzothiazol-4-yl)-2-sulfamoyl-3-(1H-tetrazol-5-yl)phenyl]sulfonyl}-N-methylglycinamide], the Efflux ratio turned out to be 1.00. As for `CN(C)C(=O)CNS(=O)(=O)c1ccc(-c2cccc3sc(N)nc23)c(-c2nnn[nH]2)c1S(N)(=O)=O` [Example 36, N^2-{[4-(2-amino-1,3-benzothiazol-4-yl)-2-sulfamoyl-3-(1H-tetrazol-5-yl)phenyl]sulfonyl}-N,N-dimethylglycinamide], the Efflux ratio amounted to 1.00. Same read-out and setting: the figure for `NC[C@H](N)CNS(=O)(=O)c1ccc(-c2cnccc2N)c(-c2nn[nH]n2)c1S(N)(=O)=O` [Example 223, (S)-4-(4-aminopyridin-3-yl)-N1-(2,3-diaminopropyl)-3-(2H-tetrazol-5-yl)benzene-1,2-disulfonamide] is 2.00.

The values above are taken from patent publication US10544130B2, “Metallo-beta-lactamase inhibitors” (priority 2015, dated 2020).
